What was measured:
[1] = Oil-water partition coefficient (log P) measurement; assay type: physicochemical; conditions: n-octanol/water, room temperature
Method: The partition coefficient between n-octanol and water (log Po/w) is the classical descriptor for Lipophilicity ([Daina et al., 2017]). The test methodology followed previously published protocols ([Wang et al., 2021]). At room temperature, two large Erlenmeyer flasks were taken and filled with n-octanol and water, respectively. The flasks were placed in a constant temperature shaker at 150 rpm for 24 h to saturate the solvents. The mixtures were then transferred to separating funnels under normal pressure to obtain water-saturated n-octanol and n-octanol-saturated water for subsequent use. The target compound (2 mg) was accurately weighed and placed in a 2 mL brown volumetric flask. Anhydrous methanol was added to ultrasonically dissolve the compound, and the mixture was diluted to volume and thoroughly shaken to prepare a 1 mg/mL stock solution. The stock solution was further diluted to obtain 1, 1.5, 2, 2.5, 5 and 10 μg/mL reference solutions for construction of a standard curve using a UV-visible spectrophotometer. An excess amount of the analyte was dissolved in water-saturated n-octanol, and the mixture was shaken at 150 rpm for 24 h at constant temperature to obtain a saturated solution. The saturated solution was allowed to stand, centrifuged, and 1 mL of the supernatant was transferred to a 4 mL centrifuge tube. N-octanol saturated water (1 mL) was added, and the mixture was shaken at 150 rpm for 24 h at constant temperature. After standing for 8 h, the mixture was centrifuged. Appropriate amounts of the n-octanol phase before and after equilibration were diluted with methanol, and concentrations were determined from the standard curve to obtain C0 and C1. The concentration in the n-octanol saturated aqueous phase, Cw, was calculated as Cw = C0 - C1. Thus, log Po/w = […].

[2] = tested on: A431 cells; test: MTT cell proliferation assay, A431; assay type: cell-based, human; conditions: for inhibition at 10 µM / IC50: Homo sapiens, A-431, 48 h; for inhibition at 10 µM: read-out: A431 cells inhibition rate; for inhibition at 10 µM / A431 cells inhibition rate: 10 μM; for A431 cells inhibition rate: 48 h; for IC50: read-out: IC50 (mean ± SD) A431
Method: (§1) Beas-2b, A431, A549 and H1299 cells were cultured in 96-well plates (5 × 10^3 cells/well) for 16 h, respectively. Subsequently, positive compound 4i and 25 newly synthesized compounds were added at a final concentration of 10 μM or gradient concentrations (0.01, 0.1, 0.5, 1, 5 and 10 μM), co-incubated with the cells for 48 h. MTT (M8180, Solarbio) solutions (5 mg/mL) were then added and incubated for 4 h in the dark. Then, formazan crystals were dissolved with DMSO (D8371, Solarbio), followed by shaking on a shaker (DRAGONLAB, China) for 10 min. Finally, absorbance at 490 nm wavelength for each well was measured with Microplate reader (Molecular Devices, United States) ([Tang et al., 2020]; [Lee et al., 2021]). The results are expressed as mean ± SD from three independent experiments. Cells inhibition rates or IC50 values were calculated using GraphPad Prism 9.5.0.

[3] = tested on: A549 cells; test: MTT cell proliferation assay, A549; assay type: cell-based, human; conditions: for inhibition at 10 µM / IC50: Homo sapiens, A549, 48 h; for inhibition at 10 µM: read-out: A549 cells inhibition rate; for inhibition at 10 µM / A549 cells inhibition rate: 10 μM; for A549 cells inhibition rate: 48 h; for IC50: read-out: IC50 (mean ± SD) A549
Method: as §1

[4] = tested on: H1299 cells; test: MTT cell proliferation assay, H1299; assay type: cell-based, human; conditions: for inhibition at 10 µM / IC50: Homo sapiens, NCI-H1299, 48 h; for inhibition at 10 µM: read-out: H1299 cells inhibition rate; for inhibition at 10 µM / H1299 cells inhibition rate: 10 μM; for H1299 cells inhibition rate: 48 h; for IC50: read-out: IC50 (mean ± SD) H1299
Method: as §1

[5] = tested on: Beas-2b cells; test: MTT cell proliferation and toxicity assay, Beas-2b; assay type: cell-based, human; conditions: 48 h; for inhibition at 10 µM: Homo sapiens, BEAS-2B, read-out: Beas-2b cells inhibition rate
Method: as §1

Compound	logP [1]	inhibition at 10 µM [2] [%]	inhibition at 10 µM [3] [%]	inhibition at 10 µM [4] [%]	inhibition at 10 µM [5] [%]	A431 cells inhibition rate [2] [%]	IC50 [2] [µM]	A549 cells inhibition rate [3] [%]	IC50 [3] [µM]	H1299 cells inhibition rate [4] [%]	IC50 [4] [µM]	log P [1]	Beas-2b cells inhibition rate ([5]; 10 μM) [%]
O=C(Nc1nc2ccc(Cl)cc2s1)c1ccccc1F [C7, N-(6-chlorobenzo[d]thiazol-2-yl)-2-fluorobenzamide]	2.9 ± 0.32	40.4 ± 1.33	44.6 ± 0.94	48.28 ± 0.37	21.4 ± 2.25	–	–	–	–	–	–	–	–
COc1ccc(C(=O)Nc2nc3ccc(Cl)cc3s2)cc1 [C5, N-(6-chlorobenzo[d]thiazol-2-yl)-4-methoxybenzamide]	2.87 ± 0.15	> 50	> 50	> 50	17.2 ± 1.24	55.67 ± 2.34	4.35 ± 0.9	56.33 ± 2.96	9.82 ± 0.98	51.98 ± 0.24	8.94 ± 1.21	–	–
O=[N+]([O-])c1ccccc1COc1ccccc1-c1nc2ccccc2s1 [A2, 2-(2-((2-nitrobenzyl)oxy)phenyl)benzo[d]thiazole]	3.51 ± 0.19	35.8 ± 2.03	33.1 ± 2.34	42.4 ± 1.26	17.3 ± 3.26	–	–	–	–	–	–	–	–
Cc1ccc(COc2ccccc2-c2nc3ccccc3s2)cc1 [A6, 2-(2-((4-methylbenzyl)oxy)phenyl)benzo[d]thiazole]	4.72 ± 0.28	27.7 ± 1.62	20.7 ± 2.31	33.9 ± 0.68	15.1 ± 3.28	–	–	–	–	–	–	–	–
O=C1c2ccccc2C(=O)N1CCCOc1ccccc1-c1nc2ccccc2s1 [A3, 2-(3-(2-(benzo[d]thiazol-2-yl)phenoxy)propyl)isoindoline-1,3-dione]	3.63 ± 0.16	34.2 ± 1.15	28.5 ± 2.21	30.9 ± 0.77	5.25 ± 0.39	–	–	–	–	–	–	–	–
N#Cc1ccc(COc2ccccc2-c2nc3ccccc3s2)cc1 [A8, 4-((2-(benzo[d]thiazol-2-yl)phenoxy)methyl)benzonitrile]	3.44 ± 0.22	28.6 ± 1.24	24.4 ± 1.22	37.3 ± 2.3	14.2 ± 3.65	–	–	–	–	–	–	–	–
COc1ccc(CNc2nc3ccc(F)cc3s2)cc1OC [B3, N-(3,4-dimethoxybenzyl)-6-fluorobenzo[d]thiazol-2-amine]	2.56 ± 0.12	32.4 ± 2.92	22.4 ± 1.34	44.6 ± 1.75	25.4 ± 2.01	–	–	–	–	–	–	–	–
O=C(Nc1nc2ccc(F)cc2s1)c1ccc([N+](=O)[O-])cc1 [C4, N-(6-fluorobenzo[d]thiazol-2-yl)-4-nitrobenzamide]	3.06 ± 0.23	43.1 ± 1.45	35.3 ± 1.82	45.2 ± 0.55	13.4 ± 1.65	–	–	–	–	–	–	–	–
O=C(Nc1nc2ccc(F)cc2s1)c1c(Cl)cccc1Cl [C2, 2,6-dichloro-N-(6-fluorobenzo[d]thiazol-2-yl) benzamide]	–	–	–	–	–	5.61 ± 0.26	–	0.27 ± 0.12	–	6.80 ± 0.22	–	2.93 ± 0.11	12.82 ± 1.76
Fc1ccc2nc(NCCc3ccccc3)sc2c1 [B1, 6-fluoro-N-phenethylbenzo[d]thiazol-2-amine]	3.47 ± 0.27	21.1 ± 2.03	18.3 ± 0.93	26.3 ± 0.91	23.1 ± 1.52	–	–	–	–	–	–	–	–
O=C(Nc1nc2ccc(F)cc2s1)c1ccccc1 [C1, N-(6-fluorobenzo[d]thiazol-2-yl)benzamide]	2.56 ± 0.14	17.5 ± 1.35	19.3 ± 1.07	28.3 ± 1.25	16.3 ± 1.82	–	–	–	–	–	–	–	–
O=[N+]([O-])c1ccc(COc2ccccc2-c2nc3ccccc3s2)cc1 [A4, 2-(2-((4-nitrobenzyl)oxy)phenyl)benzo[d]thiazole]	3.74 ± 0.35	35.8 ± 1.02	33.3 ± 1.36	39.4 ± 1.2	10.3 ± 0.64	–	–	–	–	–	–	–	–
c1ccc(COc2ccccc2-c2nc3ccccc3s2)cc1 [A7, 2-(2-(benzyloxy)phenyl)benzo[d]thiazole]	3.95 ± 0.15	15.3 ± 2.21	12.2 ± 3.42	26.5 ± 1.11	11.4 ± 2.65	–	–	–	–	–	–	–	–
COc1ccc(C(=O)Nc2nc3ccc(F)cc3s2)cc1OC [C3, N-(6-fluorobenzo[d]thiazol-2-yl)-3,4-dimethoxybenzamide]	2.49 ± 0.39	12.3 ± 1.51	4.38 ± 0.35	18 ± 2.52	21.3 ± 1.62	–	–	–	–	–	–	–	–
COc1cc(CNc2nc3ccc(Cl)cc3s2)cc(OC)c1 [B6, 6-chloro-N-(3,5-dimethoxybenzyl)benzo[d]thiazol-2-amine]	3.36 ± 0.18	43.4 ± 1.61	35.2 ± 2.86	32.8 ± 0.74	20.6 ± 1.32	–	–	–	–	–	–	–	–
Fc1ccc2nc(NCc3c(Cl)cccc3Cl)sc2c1 [B2, N-(2,6-dichlorobenzyl)-6-fluorobenzo[d]thiazol-2-amine]	4.25 ± 0.16	27.5 ± 2.42	30.2 ± 2.13	31.3 ± 1.14	18.6 ± 1.67	–	–	–	–	–	–	–	–
Fc1cccc(CNc2nc3ccc(Cl)cc3s2)c1 [B5, 6-chloro-N-(3-fluorobenzyl)benzo[d]thiazol-2-amine]	3.58 ± 0.11	> 50	> 50	> 50	20.6 ± 1.85	59.69 ± 3.62	10.8 ± 0.56	58.64 ± 1.01	5.44 ± 1	51.34 ± 3.03	9.26 ± 1.34	–	–
O=C(Nc1nc2ccc(Cl)cc2s1)c1ccccc1 [C6, N-(6-chlorobenzo[d]thiazol-2-yl)benzamide]	3.05 ± 0.17	> 50	> 50	> 50	20.6 ± 0.52	57.73 ± 2.12	8.4 ± 1.06	55.56 ± 2.78	8.17 ± 0.4	59.72 ± 1.84	9.02 ± 0.37	–	–
Clc1cccc(COc2ccccc2-c2nc3ccccc3s2)c1 [A5, 2-(2-((3-chlorobenzyl)oxy)phenyl)benzo[d]thiazol]	4.51 ± 0.24	45.7 ± 0.87	47.6 ± 1.24	35.3 ± 2.24	18.2 ± 2.23	–	–	–	–	–	–	–	–
COc1cc(CN(Cc2cc(OC)cc(OC)c2)c2nc3ccc(Cl)cc3s2)cc(OC)c1 [D1, 6-chloro-N,N-bis(3,5-dimethoxybenzyl)benzo[d]thiazol-2-amine]	5.69 ± 0.25	38.7 ± 1.56	15.4 ± 3.46	32.7 ± 1.25	19.3 ± 1.31	–	–	–	–	–	–	–	–
O=[N+]([O-])c1ccc(CNc2nc3ccc(F)cc3s2)cc1 [B4, 6-fluoro-N-(4-nitrobenzyl)benzo[d]thiazol-2-amine]	2.67 ± 0.25	24.3 ± 1.87	19.6 ± 1.32	25 ± 1.62	21.4 ± 2.21	–	–	–	–	–	–	–	–
Clc1ccc2nc(NCc3ccccc3)sc2c1 [B8, N-benzyl-6-chlorobenzo[d]thiazol-2-amine]	3.56 ± 0.16	> 50	> 50	> 50	18.1 ± 3.22	57.43 ± 3.64	5.36 ± 1	65.75 ± 0.96	6.25 ± 0.99	55.22 ± 2.49	6.69 ± 0.54	–	–

Reference: PMC10982501, “Synthesis and biological evaluation of novel benzothiazole derivatives as potential anticancer and antiinflammatory agents” (Frontiers in Chemistry, 2024)
